Measurements published in patent publication US8247401B2, “P2X3 receptor antagonists for treatment of pain” (Merck Sharp & Dohme Corp., priority 2007, dated 2012).

Target: T1, human P2X3 (Homo sapiens, UniProt P56373)
T1 construct: expressed in transfected cells
T1 sequence (P56373 1-397): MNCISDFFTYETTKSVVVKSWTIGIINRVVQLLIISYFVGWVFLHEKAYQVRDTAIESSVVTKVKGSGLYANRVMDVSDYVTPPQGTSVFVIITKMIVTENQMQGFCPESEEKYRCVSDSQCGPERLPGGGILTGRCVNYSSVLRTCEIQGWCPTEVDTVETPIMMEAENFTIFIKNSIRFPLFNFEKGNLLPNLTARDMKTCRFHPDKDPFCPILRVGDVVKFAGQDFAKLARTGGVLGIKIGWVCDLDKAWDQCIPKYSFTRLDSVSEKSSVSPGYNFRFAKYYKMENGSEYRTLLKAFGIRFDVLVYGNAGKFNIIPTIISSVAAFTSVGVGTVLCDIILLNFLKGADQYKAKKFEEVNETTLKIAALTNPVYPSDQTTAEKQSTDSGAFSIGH
Test: Intracellular Calcium Measurement to Assess Antagonist Affinity (FLIPR, Fluo-4)
Type: cell-based
Conditions: Intracellular Calcium Measurement assay; agonist α,β-meATP at EC50
Text: Generation of a Human P2X3 and P2X2/3 Stable Cell Line—Human P2X3 receptor cDNA (Accession number NM_002559) was subcloned as a 5′XhoI and 3′HindIII fragment into the expression vector pcDNA5/FRT (Invitrogen). Human P2X2 receptor cDNA (Accession number NM_174873) was subcloned as a 5′EcoRI and 3′NotI fragment into the expression vector pIRESneo2 (BD Biosciences Clontech). The human P2X3 expression construct was transfected using Lipofectamine 2000 (Invitrogen) into Flp-in—293 cells (Invitrogen) according to the manufacturer's directions. Cells positive for flp-mediated recombination of […] P2X3 were selected using 150 μg/ml hygromycin. The stable human P2X3 cell line was co-transfected with the human P2X2 expression construct using Lipofectamine 2000 as above and co-transfected cells selected using […] hygromycin and 1 mg/ml G418. The stable P2X3 cell line was propagated in DMEM, 10% FBS, 100 μg/ml hygromycin, and 100 units/ml penicillin and 100 μg/ml streptomycin, and maintained at 37° and 95% humidity. The stable P2X2/3 cell line was propagated as above with the addition of 500 μg/ml G418.
Intracellular Calcium Measurement to Assess Antagonist Affinity—A fluorescent imaging plate reader (FLIPR; Molecular Devices) was used to monitor intracellular calcium levels using the calcium-chelating dye Fluo-4 (Molecular Probes). The excitation and emission wavelengths used to monitor fluorescence were 488 nm and 530 nm, respectively. Cells expressing either human P2X3 or human P2X2/3 were plated at a density of 20,000 cells/well (20 μl/well) in 384-well black-walled plates approximately 20 hours before beginning the assay. On the day of the assay 20 μl of loading buffer (Hank's balanced salt solution, 2.5 mM CaCl2, 20 mM HEPES, 0.1% BSA, 2.5 mM probenecid, TR-40, Fluo-4, and 138 mM NMDG substituted for NaCl) is added and cells dye-loaded for 60 min in the dark at room temperature. Ten minutes prior to adding agonist, the antagonist was added in a volume of 10 μl and allowed to incubate at room temperature. During this period fluorescence data is collected at 3 sec intervals followed by 10 sec intervals. The agonist, α,β-meATP, is added at a 6× concentration ([α,β-meATP]final=EC50). Following agonist addition fluorescence was measured at 5 sec intervals and analyzed based on the increase in peak relative fluorescence units (RFU) compared to the basal fluorescence. Peak fluorescence was used to determine the inhibitory effect at each concentration of antagonist by the following equation: % Inhibition=100*(1−((RFU(drug)−RFU(control))/(RFU(DMSO only)−RFU(control)))) In vitro Electrophysiological Assay—Cells expressing human P2X3 receptors were grown to a confluence of 65-85% 20 to 32 hours prior to assay. […]

| IC50 [nM] | SMILES |
| --- | --- |
| 20 | Cc1ccc(-c2cc(C(=O)NC(C)c3nnc[nH]3)cc(N3CCOCC3)c2)c(F)c1 (stereo in doubt) [Example 4.109, 2′-Fluoro-4′-methyl-5-morpholin-4-yl-N-[(1R)-1-(1H-1,2,4-triazol-3-yl)ethyl]biphenyl-3-carboxamide] |
| 26 | C[C@@H](NC(=O)c1cc(-c2ccc(Cl)cn2)cc(C(C)(C)O)c1)c1ccc(C(F)(F)F)[n+]([O-])c1 [Example 4.539, 3-(5-Chloropyridin-2-yl)-5-(1-hydroxy-1-methylethyl)-N-{(1R)-1-[1-oxido-6-(trifluoromethyl)pyridin-3-yl]-ethyl}benzamide] |
| 11 | Cc1ccc(-c2cc(C(=O)N[C@H](C)c3ncc(F)cc3F)cc(-c3nnc(C4CC4)n3C)c2)nc1 [Example 4.3] |
| 8 | Cc1ccc(-c2cc(C(=O)N[C@H](C)c3ccc(F)cn3)cc(-c3ncccc3F)c2)nc1 [Example 4.252, 3-(3-Fluoropyridin-2-yl)-N-[(1R)-1-(5-fluoropyridin-2-yl)ethyl]-5-(5-methylpyridin-2-yl)benzamide] |
